{
  "source": "patent US12084680B2",
  "about": "“Methods for efficient derivation of human motor neurons from diverse spinal regions” (Wisconsin Alumni Research Foundation, priority 2016, dated 2024)",
  "key": {"H9 ishcat2 hESC line": {"system": "H9 ishcat2 hESC line", "experiment": "Doxycycline-inducible shRNA knockdown of β-catenin (CTNNB1) during motor neuron differentiation", "format": "cell-based, human", "settings": "H9 ishcat2, 3 days shRNA CTNNB1 knockdown upstream of CHIR 4 μM, day 3", "method": "In the ventral neural tube, SHH signaling generates OLIG2^+ motor neuron progenitors that subsequently mature into post-mitotic ISL1^+ and/or HB9^+ motor neurons. To probe the role of Wnt/β-catenin signaling during this process in vitro, we utilized the H9 ishcat2 hESC line, which harbors a doxycycline-inducible shRNA against CTNNB1.\nSimilarly, we induced β-catenin knockdown while differentiating the hESCs into motor neurons via E6 neural induction with RA (1 μM), purmorphamine (PM, a small molecule agonist of sonic hedgehog signaling; 100 nM), and neurotrophic factor treatment, as previously described (FIG. 3A).\nNKX6.1 is the earliest expressed marker in the motor neuron development cascade in vivo, so we examined its expression in response to Wnt/β-catenin, RA, and SHH signaling during hPSC motor neuron differentiation. H9 hESCs were differentiated in E6 medium for 2 days to initiate neural fate acquisition34 and then treated with combinations of RA, purmorphamine (PM, a small molecule agonist of SHH signaling), and CHIR for 24 h (FIG. 4A). […] Using the H9 ishcat2 line, we observed that CHIR-mediated induction of NKX6.1 was β-catenin-dependent, as the optimal 3 days of shRNA-mediated CTNNB1 knockdown upstream of CHIR treatment was required to maximally reduce NKX6.1 induction to 44±1% (FIG. 4E). The correlation between NKX6.1 knockdown and days of doxycycline treatment was presumably due to the time delay for shRNA synthesis and subsequent gene knockdown in Tet-on systems. […] Exogenously added WNT3A (200 ng/mL) could also induce NKX6.1 expression (60±14%) (FIG. 4G), providing further evidence for the involvement of Wnt/β-catenin signaling in this process. In contrast, simultaneous treatment with CHIR and BMP4 (200 ng/mL), a dorsal patterning factor, reduced the expression of NKX6.1 from 91±1% to 68±2% (FIG. 4H).\nhESCs were maintained on Matrigel (BD Biosciences) in E8 medium but with 10-fold lower insulin concentration (2 mg/L). Cell lines used in this study were H9 hESCs (passage 25-45) and H9 ishcat2 hESCs (passage 35-45). […]"}, "H9 hESCs": {"system": "H9 hESCs", "experiment": "OLIG2 induction in thoracic and lumbar neuroectoderm at various day 5 reseed densities", "format": "cell-based, human", "settings": "for PAX6+/OLIG2+ cells: reseed 1.5×10^5 cells/cm^2", "excerpt": "However, OLIG2 induction was less efficient upon employing the standard deterministic HOX patterning protocol to generate thoracic and lumbar neuromesoderm followed by a CHIR boost and application of RA and SHH/PM (FIG. 6A). Only 11±2% and 67±9% of the cells in the thoracic and lumbar cultures, respectively, were PAX6^+/OLIG2^+ (FIGS. 6B-6C). We noted that our standard neuromesodermal protocol always used a reseed density of 1.5×10^5 cells/cm^2, which generates a relatively confluent but not tightly packed cell monolayer 24 h after seeding. Having previously determined that cell density and cell-cell contacts can serve as modulators of neural fate, we explored the effects of seeding density on OLIG2 induction.\nhESCs were dissociated with accutase (Thermo Fisher Scientific) and reseeded at 1×10^5 cells/cm2 in E8 medium containing 10 μM ROCK inhibitor (Y27632; R&D Systems) on 6-well polystyrene tissue culture plates coated with 100 μg/mL poly-L-ornithine (PLO; Sigma) and 8 μg/well VTN-NC. The timelines and relevant growth factors/small molecules for all differentiation procedures are described in detail in the Results section and its accompanying figures. Cells were differentiated for various amounts of time in E6 medium containing the same insulin concentration as E8 medium as described above with varying combinations of soluble factors (product information and concentration ranges are found in Table 2). For neuromesodermal induction and HOX propagation, cells were sequentially cultured with FGF8b, CHIR99021 (CHIR), GDF11, and dorsomorphin (DM) as previously described. Briefly, to initiate the neuromesodermal state, cells were changed to E6 medium followed by addition of FGF8b (200 ng/ml) 24 h later. To generate cervical neuromesodermal progenitors, cells were washed with PBS, treated with accutase, and re-seeded in E6 medium containing 200 ng/ml FGF8b, 3 μM CHIR, and 10 μM Y27632 on VTN-NC-coated plates at a density of 1.5×10^5 cells/cm^2 for 48 h. To generate thoracic neuromesodermal progenitors, cells were passaged again after 72 h of CHIR treatment and re-seeded at different densities as described in the text.\nThoracic identity was reached after an additional 24 h. Then, to reach the lumbosacral level, cells were given 30 ng/ml GDF11 and 1 μM DM for an additional 48 h. For neuroectoderm induction and generation of OLIG2^+ progenitors, FGF8b was removed at the designated time points and the concentration of CHIR was increased for 6 h as described in the text, followed by a transition to media containing RA, PM, and SHH for a period of 48 h. For differentiation of the OLIG2^+ progenitors to motor neurons, cells were subcultured by en bloc passage using a cell scraper, reseeded at a 1:200 ratio in Matrigel-coated 8-well chamber slides, and differentiated for 14 days in E6 medium containing 1 μM RA, 100 nM PM, and 100 ng/mL SHH, with media exchange every 3 days (10 μM Y27632 was included during the en bloc passaging step and removed after the first media exchange). For differentiation of lumbar cultures, 1 μM DM was included in all steps. For the myoblast co-culture experiments, OLIG2^+ cultures were en bloc passaged, frozen in E6 medium containing 10% DMSO, shipped to a different location, and thawed 1:10 in 6-well plates under the same conditions as described in FIG. 5. To facilitate neuronal maturation prior to myoblast co-culture, 5 μM DAPT (Tocris) was added from days 8-14 post-thaw. Flow cytometry, RT-PCR, and qPCR (RPS18 and CTNNB1 Taqman primers from Thermo Fisher Scientific) were conducted as previously described."}},
  "data": [
    {"compound": "Cc1c[nH]c(-c2cnc(NCCNc3ccc(C#N)cn3)nc2-c2ccc(Cl)cc2Cl)n1", "note": "[CHIR, CHIR99021]", "values": [
      {"measurement": "NKX6.1 induction (flow cytometry)", "setting": "H9 ishcat2 hESC line", "result": "44±1", "unit": "%"},
      {"measurement": "PAX6+/OLIG2+ cells", "setting": "H9 hESCs; lumbar culture, CHIR boost then RA and SHH/PM", "result": "67±9", "unit": "%"},
      {"measurement": "OLIG2+ cells", "setting": "H9 hESCs; lumbar neuroectoderm, reseed 4×10^5 cells/cm^2, with dorsomorphin, CHIR boost then RA and SHH/PM", "result": "82±3", "unit": "%"},
      {"measurement": "PAX6+/OLIG2+ cells", "setting": "H9 hESCs; thoracic culture, CHIR boost then RA and SHH/PM", "result": "11±2", "unit": "%"},
      {"measurement": "OLIG2+ cells", "setting": "H9 hESCs; thoracic neuroectoderm, day 5 reseed 1×10^5 cells/cm^2, CHIR boost then RA and SHH/PM", "result": "19±5", "unit": "%"},
      {"measurement": "OLIG2+ cells", "setting": "H9 hESCs; thoracic neuroectoderm, day 5 reseed 2×10^5 cells/cm^2, CHIR boost then RA and SHH/PM", "result": "48±3", "unit": "%"},
      {"measurement": "OLIG2+ cells", "setting": "H9 hESCs; thoracic neuroectoderm, day 5 reseed 4×10^5 cells/cm^2, CHIR boost then RA and SHH/PM", "result": "80±3", "unit": "%"}
    ]}
  ]
}
